Experimental data published in ChEMBL document CHEMBL6074652, “New rhodol-sulforaphane conjugates as innovative isothiocyanate-based cytotoxic agents for cancer cells” (Eur J Med Chem, 2024).
pIC50: −log10 of the molar value. Activity calls are given as the source filed them. The calls are words filed in the database; no cut-off is given here.

Assays:
TK6 [1] = assay: Induction of DNA damage in human TK6 cells assessed as micronuclei formation incubated for 4 hrs by May-Grunwald/Giemsa staining based microscopic analysis; format: functional, cell-based; settings: dose 1-4 µM
RPMI-1788 [2] = assay: Cytotoxicity against human RPMI-1788 cells assessed as reduction in cell viability incubated for 24 hrs by trypan blue staining based MTT assay; format: functional; settings: dose 0-8 µM
Jurkat [3] = assay: Induction of apoptosis in human Jurkat cells assessed as increase in caspase-8 activity incubated for 2 hrs by colorimetric protease assay; format: functional, cell-based; settings: dose 2-6 µM
Jurkat [4] = assay: Induction of DNA damage in human Jurkat cells assessed as increase in accumulation of single strand breaks by measuring nuclear diffusion factor by fast halo based fluorescence microscopic analysis; format: functional, cell-based; settings: dose 0-8 µM
Jurkat [5] = assay: Induction of DNA damage in human Jurkat cells assessed as accumulation of single strand breaks at 2 to 6 uM under 4 degreeC incubated for 1 hr by measuring nuclear diffusion factor by fast halo based fluorescence microscopic analysis; format: functional, cell-based; settings: dose 2-6 µM
U-937 [6] = assay: Cytotoxicity against human U-937 cells assessed as reduction in cell viability incubated for 24 hrs by trypan blue staining based MTT assay; format: functional; settings: dose 0-8 µM
MV4-11 [7] = assay: Cytotoxicity against human MV4-11 cells assessed as reduction in cell viability at 0 to 8 uM incubated for 24 hrs by trypan blue staining based MTT assay; format: functional; settings: dose 0-8 µM
TK6 [8] = assay: Cytotoxicity against human TK6 cells assessed as reduction in cell viability at 0 to 6 uM incubated for 24 hrs by trypan blue staining based MTT assay; format: functional; settings: dose 0-6 µM
Mitochondrial membrane = assay: Induction of mitochondrial membrane potential loss in human Jurkat cells at 2 to 6 uM by flow cytometric analysis; settings: dose 2-6 µM
MV4-11 [9] = assay: Cytotoxicity against human MV4-11 cells assessed as reduction in cell viability incubated for 24 hrs by trypan blue staining based MTT assay; format: functional; settings: dose 0-8 µM
Jurkat [10] = assay: Induction of DNA damage in human Jurkat cells measured at 1 hr; format: functional, cell-based; settings: dose 6.0 µM
MOLM-13 [11] = assay: Cytotoxicity against human MOLM-13 cells assessed as reduction in cell viability incubated for 24 hrs by trypan blue staining based MTT assay; format: functional; settings: dose 0-8 µM
TK6 [12] = assay: Induction of DNA damage in human TK6 cells assessed as micronuclei formation at 2 uM incubated for 4 hrs by May-Grunwald/Giemsa staining based microscopic analysis; format: functional, cell-based
Jurkat [13] = assay: Cytotoxicity against human Jurkat cells assessed as inhibition of cell viability incubated for 72 hrs by trypan blue staining based MTT assay; format: functional
Jurkat [14] = assay: Induction of DNA damage in human Jurkat cells assessed as accumulation of single strand breaks at 2 to 8 uM by measuring nuclear diffusion factor by fast halo based fluorescence microscopic analysis; format: functional, cell-based; settings: dose 2-8 µM
TK6 [15] = assay: Cytotoxicity against human TK6 cells assessed as reduction in cell viability incubated for 24 hrs by trypan blue staining based MTT assay; format: functional; settings: dose 0-6 µM
Jurkat [16] = assay: Induction of DNA damage in human Jurkat cells assessed as single strand breaks at 8 uM by measuring nuclear diffusion factor measured after 3 hrs by fast halo based fluorescence microscopic analysis relative to control; format: functional
TK6 [17] = assay: Induction of DNA damage in human TK6 cells assessed as accumulation of single strand breaks at 2 to 8 uM by measuring nuclear diffusion factor by fast halo based fluorescence microscopic analysis; format: functional, cell-based; settings: dose 2-8 µM
Jurkat [18] = assay: Induction of DNA damage in human Jurkat cells at 4 uM assessed as nuclear diffusion factor incubated for 1 hr in presence of rotenone by fast halo based fluorescence microscopic analysis; format: functional, cell-based
OCI-AML-3 [19] = assay: Cytotoxicity against human OCI-AML-3 cells assessed as reduction in cell viability incubated for 24 hrs by trypan blue staining based MTT assay; format: functional; settings: dose 0-8 µM
TK6 [20] = assay: Induction of DNA damage in human TK6 cells assessed as micronuclei formation at 4 uM by measuring 1000 binucleated cells incubated for 4 hrs by May-Grunwald/Giemsa staining based microscopic analysis; format: functional
OCI-AML-3 [21] = assay: Cytotoxicity against human OCI-AML-3 cells assessed as reduction in cell viability at 0 to 8 uM incubated for 24 hrs by trypan blue staining based MTT assay; format: functional; settings: dose 0-8 µM
Jurkat [22] = assay: Cytotoxicity against human Jurkat cells at 4 uM in presence of iron-chelator o-phenanthroline by trypan blue staining based MTT assay; format: functional, cell-based
Jurkat [23] = assay: Induction of DNA damage in human Jurkat cells assessed as fold increase in p53 expression at 4 uM by flow cytometric analysis; format: functional
MOLM-13 [24] = assay: Cytotoxicity against human MOLM-13 cells assessed as reduction in cell viability at 0 to 8 uM incubated for 24 hrs by trypan blue staining based MTT assay; format: functional; settings: dose 0-8 µM
TK6 [25] = assay: Induction of DNA damage in human TK6 cells assessed as micronuclei formation at >4 uM incubated for 4 hrs by May-Grunwald/Giemsa staining based microscopic analysis; format: functional, cell-based
Jurkat [26] = assay: Cytotoxicity against human Jurkat cells assessed as cell growth inhibition under 4 degreeC incubated for 72 hrs by trypan blue staining based MTT assay; format: functional
Jurkat [27] = assay: Cytotoxicity against human Jurkat cells at 4 uM incubated for 1 hr in presence of rotenone by trypan blue staining based MTT assay; format: functional, cell-based
Jurkat [28] = assay: Cytotoxicity against human Jurkat cells assessed as cell growth inhibition under 37 degreeC incubated for 72 hrs by trypan blue staining based MTT assay; format: functional
U-937 [29] = assay: Cytotoxicity against human U-937 cells assessed as reduction in cell viability at 0 to 8 uM incubated for 24 hrs by trypan blue staining based MTT assay; format: functional; settings: dose 0-8 µM
RPMI-1788 [30] = assay: Cytotoxicity against human RPMI-1788 cells assessed as reduction in cell viability at 0 to 8 uM incubated for 24 hrs by trypan blue staining based MTT assay; format: functional; settings: dose 0-8 µM
Jurkat [31] = assay: Induction of DNA damage in human Jurkat cells assessed as fold increase in H2AX phosphorylation expression at 4 to 8 uM incubated for 30 mins by flow cytometric analysis; format: functional; settings: dose 4-8 µM, 0.5 h
Jurkat [32] = assay: Induction of apoptosis in human Jurkat cells assessed as cleavage of PARP1 at 4 to 6 uM by flow cytometric analysis; format: functional, cell-based; settings: dose 4-6 µM
Jurkat [33] = assay: Induction of apoptosis in human Jurkat cells assessed as increase in caspase-3 activity incubated for 2 hrs by colorimetric protease assay; format: functional, cell-based; settings: dose 2-6 µM
Jurkat [34] = assay: Induction of DNA damage in human Jurkat cells at 4 uM assessed as nuclear diffusion factor incubated for 1 hr in presence of iron-chelator o-phenanthroline by fast halo based fluorescence microscopic analysis; format: functional, cell-based
Jurkat [35] = assay: Cytotoxicity against human Jurkat cells assessed as cell survival rate at 30 uM incubated for 72 hrs by trypan blue staining based MTT assay; settings: read-out: Survival
Jurkat [36] = assay: Induction of DNA damage in human Jurkat cells assessed as single strand breaks at <32 uM by measuring nuclear diffusion factor by fast halo based fluorescence microscopic analysis; format: functional, cell-based
Jurkat [37] = assay: Cytotoxicity against human Jurkat cells assessed as inhibition of cell viability < 32 uM incubated for 72 hrs by trypan blue staining based MTT assay; format: functional
Jurkat [38] = assay: Induction of apoptosis in human Jurkat cells assessed as appearance of chromatin condensation pretreated with compound for 1 hr and measured after 5 hrs by uranyl acetate and lead citrate staining based transmission electron microscopic analysis; format: functional, cell-based; settings: time 6.0 hrs
Jurkat [39] = assay: Induction of apoptosis in human Jurkat cells assessed as appearance of cup-shaped masses pretreated with compound for 1 hr and measured after 5 hrs by uranyl acetate and lead citrate staining based transmission electron microscopic analysis; format: functional, cell-based; settings: time 6.0 hrs
Jurkat [40] = assay: Cytotoxicity against human Jurkat cells at 6 uM incubated for 1 hr in presence of rotenone by trypan blue staining based MTT assay; format: functional, cell-based
Jurkat [41] = assay: Induction of apoptosis in human Jurkat cells assessed as appearance of micronuclei pretreated with compound for 1 hr and measured after 5 hrs by uranyl acetate and lead citrate staining based transmission electron microscopic analysis; format: functional, cell-based; settings: time 6.0 hrs
Jurkat [42] = assay: Induction of DNA damage in human Jurkat cells at 6 uM assessed as nuclear diffusion factor incubated for 1 hr in presence of iron-chelator o-phenanthroline by fast halo based fluorescence microscopic analysis; format: functional, cell-based
Jurkat [43] = assay: Induction of apoptosis in human Jurkat cells assessed as appearance of secondary necrosis pretreated with compound for 1 hr and measured after 5 hrs by uranyl acetate and lead citrate staining based transmission electron microscopic analysis; format: functional, cell-based; settings: time 6.0 hrs
Jurkat [44] = assay: Induction of DNA damage in human Jurkat cells at 6 uM assessed as nuclear diffusion factor incubated for 1 hr in presence of rotenone by fast halo based fluorescence microscopic analysis; format: functional, cell-based
Jurkat [45] = assay: Cytotoxicity against human Jurkat cells at 6 uM in presence of iron-chelator o-phenanthroline by trypan blue staining based MTT assay; format: functional, cell-based

Compound	Activity (TK6 [1])	Activity (RPMI-1788 [2])	Activity (Jurkat [3])	Activity (Jurkat [4])	Activity (Jurkat [5])	Activity (U-937 [6])	Activity (MV4-11 [7])	Activity (TK6 [8])	Activity (Mitochondrial membrane)	Activity (MV4-11 [9])	Activity (Jurkat [10])	Activity (MOLM-13 [11])	Activity (Jurkat [13])	pIC50 (Jurkat [13])	Activity (Jurkat [14])	Activity (TK6 [15])	Activity (Jurkat [16])	Activity (TK6 [17])	Activity (OCI-AML-3 [19])	Activity (TK6 [20])	further results
Cc1ccccc1-c1c2ccc(=O)cc-2oc2cc(OCCOCCN=C=S)ccc12	Dose-dependent-effect	Dose-dependent-effect	Dose-dependent-effect	Dose-dependent-effect	Active	Dose-dependent-effect	Active	Active	Active	Dose-dependent-effect	Dose-dependent-effect	Dose-dependent-effect	Dose-dependent-effect	5.44	Active	Dose-dependent-effect	48.7%	Active	Dose-dependent-effect	19.59	Activity (TK6 [12]): Active; Activity (Jurkat [18]): Active; Activity (OCI-AML-3 [21]): Active; Activity (Jurkat [22]): Active; fold change (FC) (Jurkat [23]): 70.4; Activity (MOLM-13 [24]): Active; Activity (TK6 [25]): Active; pIC50 (Jurkat [26]): 5.60; Activity (Jurkat [27]): Active; pIC50 (Jurkat [28]): 5.44; Activity (U-937 [29]): Active; Activity (RPMI-1788 [30]): Active; fold change (FC) (Jurkat [31]): 2; Activity (Jurkat [32]): Active; Activity (Jurkat [33]): Dose-dependent-effect; Activity (Jurkat [34]): Active
C[S+]([O-])CCCCN=C=S (centres undefined) [SULFORAPHANE]														4.53							viability at 30 µM (Jurkat [35]): 66.2%
Cc1ccccc1-c1c2ccc(=O)cc-2oc2cc(OCCCCCCN)ccc12																					Activity (Jurkat [36]): inactive; Activity (Jurkat [37]): inactive
Cc1ccccc1-c1c2ccc(=O)cc-2oc2cc(OCCCCCCN=C=S)ccc12	Dose-dependent-effect	Dose-dependent-effect	Dose-dependent-effect	Dose-dependent-effect	Active	Dose-dependent-effect	Active	Active	Active	Dose-dependent-effect	Dose-dependent-effect	Dose-dependent-effect	Dose-dependent-effect	5.22	Active	Dose-dependent-effect	59.2%	Active	Dose-dependent-effect	13.07	Activity (Jurkat [38]): Active; Activity (Jurkat [39]): Active; Activity (Jurkat [40]): Active; Activity (OCI-AML-3 [21]): Active; fold change (FC) (Jurkat [23]): 45.5; Activity (MOLM-13 [24]): Active; Activity (Jurkat [41]): Active; Activity (Jurkat [42]): Active; Activity (Jurkat [43]): Active; Activity (TK6 [25]): Active; pIC50 (Jurkat [26]): 5.40; pIC50 (Jurkat [28]): 5.22; Activity (U-937 [29]): Active; Activity (RPMI-1788 [30]): Active; Activity (Jurkat [44]): Active; fold change (FC) (Jurkat [31]): 2; Activity (Jurkat [32]): Active; Activity (Jurkat [33]): Dose-dependent-effect; Activity (Jurkat [45]): Active
